Measured values taken from patent publication US9040528B2, “Chemical compounds 542” (AstraZeneca AB, priority 2008, dated 2015).

molecular target: Escherichia coli DNA gyrase A/B tetramer (Escherichia coli (strain K12), UniProt P0AES4+P0AES6); assay: DNA gyrase supercoiling activity fluorescence polarisation assay; assay type: biochemical; settings: not given
Procedure, shortened: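 Supercoiling reactions quenched with 40 nM 5′-BODIPY-FL triplex-forming oligonucleotide probe in pH 3.5 NaCl/sodium acetate buffer; after 60 min, fluorescence anisotropy read (ex 485/em 535 nm). IC50 by nonlinear regression, normalised to 0.8% DMSO (100% activity) and 5 μM ciprofloxacin (0% activity).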

Going from `C[C@@H]1CN2c3c(cc4c(OC(=O)OC(C)(C)C)noc4c3F)CC3(C(=O)NC(=O)NC3=O)[C@H]2[C@H](C)O1` (relative stereo) [Example 102, tert-butyl(2R,4S,4aS)-rel-11-fluoro-2,4-dimethyl-2′,4′,6′-trioxo-1,1′,2,3′,4,4′,4a,6′-octahydro-2′H,6H-spiro[isoxazolo[4,5-g][1,4]oxazino[4,3-a]quinoline-5,5′-pyrimidin]-8-yl carbonate] to `CC(C)NC(=O)c1noc2c(Cl)c3c(nc12)CC1(C(=O)NC(=O)NC1=O)[C@H]1[C@H](C)O[C@H](C)CN31` (relative stereo) [Example 127, (2R,4S,4aS)-rel-Chloro-N-isopropyl-2,4-dimethyl-2′,4′,6′-trioxo-2,2′,3′,4,4a,4′,6,6′-octahydro-1H,1′H-spiro[isoxazolo[4,5-g][1,4]oxazino[4,3-a][1,5]naphthyridine-5,5′-pyrimidine]-8-carboxamide], the IC50 rises from 2700 nM to 19000 nM (7-fold). The first is the more potent here.

same assay, conditions: 5 nM enzyme, relaxed plasmid, 0.3 mM ATP, ambient temperature; read-out: E. coli DNA gyrase supercoiling IC50

Going from `COC[C@@H]1O[C@H](C)CN2c3c(cc4c(C)noc4c3F)CC3(C(=O)NC(=O)NC3=O)[C@@H]12` (relative stereo) [Example 105, (2R,4R,4aS)-rel-11-fluoro-4-(methoxymethyl)-2,8-dimethyl-1,2,4,4a-tetrahydro-2′H,6H-spiro[1,4-oxazino[4,3-a][1,2]oxazolo[4,5-g]quinoline-5,5′-pyrimidine]-2′,4′,6′(1′H,3′H)-trione] to `COC[C@@H]1CN2c3c(cc4c(C)noc4c3F)CC3(C(=O)NC(=O)NC3=O)[C@H]2[C@H](C)O1` (relative stereo) [Example 106, (2S,4S,4aS)-rel-11-fluoro-2-(methoxymethyl)-4,8-dimethyl-1,2,4,4a-tetrahydro-2′H,6H-spiro[1,4-oxazino[4,3-a][1,2]oxazolo[4,5-g]quinoline-5,5′-pyrimidine]-2′,4′,6′(1′H,3′H)-trione], the IC50 rises from 700 nM to 1100 nM (1.6-fold). The first is the more potent here.

First: C[C@@H]1CN2c3c(nc4c(-c5ccccn5)noc4c3Cl)CC3(C(=O)NC(=O)NC3=O)[C@H]2[C@H](C)O1 (relative stereo) [Example 107, (2R,4S,4aS)-rel-11-chloro-2,4-dimethyl-8-(pyridyin-2-yl)-2,4,4a,6-tetrahydro-1H,1′H-spiro[isoxazolo[4,5-g][1,4]oxazino[4,3-a][1,5]naphthyridine-5,5′-pyrimidine]-2′,4′,6′(3′H)-trione]
Second: C[C@@H]1CN2c3c(nc4c(-c5cnccn5)noc4c3Cl)CC3(C(=O)NC(=O)NC3=O)[C@H]2[C@H](C)O1 (relative stereo) [Example 110, (2R,4S,4aS)-rel-11-chloro-2,4-dimethyl-8-(pyrazin-2-yl)-2,4,4a,6-tetrahydro-1H,1′H-spiro[isoxazolo[4,5-g][1,4]oxazino[4,3-a][1,5]naphthyridine-5,5′-pyrimidine]-2′,4′,6′(3′H)-trione]
The IC50 of the first is 2.1-fold lower: 1400 nM for the first, 3000 nM for the second.

First: C[C@@H]1CN2c3c(nc4c(-c5ccncc5)noc4c3Cl)CC3(C(=O)NC(=O)NC3=O)[C@H]2[C@H](C)O1 (relative stereo) [Example 108, (2R,4S,4aS)-rel-11-chloro-2,4-dimethyl-8-(pyridyin-4-yl)-2,4,4a,6-tetrahydro-1H,1′H-spiro[isoxazolo[4,5-g][1,4]oxazino[4,3-a][1,5]naphthyridine-5,5′-pyrimidine]-2′,4′,6′(3′H)-trione]
Second: C[C@@H]1CN2c3c(nc4c(-c5cccnc5)noc4c3Cl)CC3(C(=O)NC(=O)NC3=O)[C@H]2[C@H](C)O1 (relative stereo) [Example 109, (2R,4S,4aS)-rel-11-chloro-2,4-dimethyl-8-(pyridyin-3-yl)-2,4,4a,6-tetrahydro-1H,1′H-spiro[isoxazolo[4,5-g][1,4]oxazino[4,3-a][1,5]naphthyridine-5,5′-pyrimidine]-2′,4′,6′(3′H)-trione]
The IC50 of the first is 1.6-fold higher: 800 nM for the first, 500 nM for the second. The second is the more potent here.

Compared with `C[C@@H]1CN2c3c(nc4c(-c5nccs5)noc4c3Cl)CC3(C(=O)NC(=O)NC3=O)[C@H]2[C@H](C)O1` (relative stereo) [Example 111, (2R,4S,4aS)-rel-11-chloro-2,4-dimethyl-8-(thiazol-2-yl)-2,4,4a,6-tetrahydro-1H,1′H-spiro[isoxazolo[4,5-g][1,4]oxazino[4,3-a][1,5]naphthyridine-5,5′-pyrimidine]-2′,4′,6′(3′H)-trione], `Cc1csc(-c2noc3c(Cl)c4c(nc23)CC2(C(=O)NC(=O)NC2=O)[C@H]2[C@H](C)O[C@H](C)CN42)n1` (relative stereo) [Example 113, (2R,4S,4aS)-rel-11-Chloro-2,4-dimethyl-8-(4-methylthiazol-2-yl)-2,4,4a,6-tetrahydro-1H,1′H-spiro[isoxazolo[4,5-g][1,4]oxazino[4,3-a][1,5]naphthyridine-5,5′-pyrimidine]-2′,4′,6′(3′H)-trione] is 3.6-fold higher in IC50: 700 nM for the first, 2500 nM for the second.

Compared with `C[C@@H]1CN2c3c(nc4c(-c5nccn5C)noc4c3Cl)CC3(C(=O)NC(=O)NC3=O)[C@H]2[C@H](C)O1` (relative stereo) [Example 114, (2R,4S,4aS)-rel-11-Chloro-2,4-dimethyl-8-(1-methyl-1H-imidazol-2-yl)-2,4,4a,6-tetrahydro-1H,1′H-spiro[isoxazolo[4,5-g][1,4]oxazino[4,3-a][1,5]naphthyridine-5,5′-pyrimidine]-2′,4′,6′(3′H)-trione], `Cc1ncc(-c2noc3c(Cl)c4c(nc23)CC2(C(=O)NC(=O)NC2=O)[C@H]2[C@H](C)O[C@H](C)CN42)s1` (relative stereo) [Example 117, (2R,4S,4aS)-rel-11-Chloro-2,4-dimethyl-8-(2-methylthiazol-5-yl)-2,4,4a,6-tetrahydro-1H,1′H-spiro[isoxazolo[4,5-g][1,4]oxazino[4,3-a][1,5]naphthyridine-5,5′-pyrimidine]-2′,4′,6′(3′H)-trione] is 2.6-fold lower in IC50: 5200 nM for the first, 2000 nM for the second.

First: C[C@@H]1CN2c3c(nc4c(-c5cncs5)noc4c3Cl)CC3(C(=O)NC(=O)NC3=O)[C@H]2[C@H](C)O1 (relative stereo) [Example 115, (2R,4S,4aS)-rel-11-chloro-2,4-dimethyl-8-(thiazol-5-yl)-2,4,4a,6-tetrahydro-1H,1′H-spiro[isoxazolo[4,5-g][1,4]oxazino[4,3-a][1,5]naphthyridine-5,5′-pyrimidine]-2′,4′,6′(3′H)-trione]
Second: C[C@@H]1CN2c3c(nc4c(-c5cnc(Br)s5)noc4c3Cl)CC3(C(=O)NC(=O)NC3=O)[C@H]2[C@H](C)O1 (relative stereo) [Example 119, (2R,4S,4aS)-rel-11-chloro-2,4-dimethyl-8-(2-bromothiazol-5-yl)-2,4,4a,6-tetrahydro-1H,1′H-spiro[isoxazolo[4,5-g][1,4]oxazino[4,3-a][1,5]naphthyridine-5,5′-pyrimidine]-2′,4′,6′(3′H)-trione]
The IC50 of the first is 2.8-fold lower: 1100 nM for the first, 3100 nM for the second.

Going from `C[C@@H]1CN2c3c(nc4c(-c5sc(Cl)nc5Cl)noc4c3Cl)CC3(C(=O)NC(=O)NC3=O)[C@H]2[C@H](C)O1` (relative stereo) [Example 116, (2R,4S,4aS)-rel-11-chloro-2,4-dimethyl-8-(2,4-dichlorothiazol-5-yl)-2,4,4a,6-tetrahydro-1H,1′H-spiro[isoxazolo[4,5-g][1,4]oxazino[4,3-a][1,5]naphthyridine-5,5′-pyrimidine]-2′,4′,6′(3′H)-trione] to `Cc1cnc(-c2noc3c(Cl)c4c(nc23)CC2(C(=O)NC(=O)NC2=O)[C@H]2[C@H](C)O[C@H](C)CN42)s1` (relative stereo) [Example 122, (2R,4S,4aS)-rel-11-Chloro-2,4-dimethyl-8-(5-methylthiazol-2-yl)-2,4,4a,6-tetrahydro-1H,1′H-spiro[isoxazolo[4,5-g][1,4]oxazino[4,3-a][1,5]naphthyridine-5,5′-pyrimidine]-2′,4′,6′(3′H)-trione], the IC50 falls from 2000 nM to 500 nM (4-fold).

Compared with `C[C@@H]1CN2c3c(nc4c(-c5ccc(C#N)c(F)c5)noc4c3Cl)CC3(C(=O)NC(=O)NC3=O)[C@H]2[C@H](C)O1` (relative stereo) [Example 121, 4-((2R,4S,4aS)-rel-11-chloro-2,4-dimethyl-2′,4′,6′-trioxo-2,2′,3′,4,4a,4′,6,6′-octahydro-1H,1′H-spiro[isoxazolo[4,5-g][1,4]oxazino[4,3-a][1,5]naphthyridine-5,5′-pyrimidine]-8-yl)-2-fluorobenzonitrile], `C[C@@H]1CN2c3c(nc4c(-c5ccc(C(N)=O)nc5)noc4c3Cl)CC3(C(=O)NC(=O)NC3=O)[C@H]2[C@H](C)O1` (relative stereo) [Example 123, 5-((2R,4S,4aS)-rel-11-chloro-2,4-dimethyl-2′,4′,6′-trioxo-2,2′,3′,4,4a,4′,6,6′-octahydro-1H,1′H-spiro[isoxazolo[4,5-g][1,4]oxazino[4,3-a][1,5]naphthyridine-5,5′-pyrimidine]-8-yl)picolinamide] is 9.7-fold higher in IC50: 600 nM for the first, 5800 nM for the second. The first is the more potent here.

`CNC(=O)c1noc2c(Cl)c3c(nc12)CC1(C(=O)NC(=O)NC1=O)[C@H]1[C@H](C)O[C@H](C)CN31` (relative stereo) [Example 125, (2R,4S,4aS)-rel-11-Chloro-N,2,4-trimethyl-2′,4′,6′-trioxo-2,2′,3′,4,4a,4′,6,6′-octahydro-1H,1′H-spiro[isoxazolo[4,5-g][1,4]oxazino[4,3-a][1,5]naphthyridine-5,5′-pyrimidine]-8-carboxamide] and `CCNC(=O)c1noc2c(Cl)c3c(nc12)CC1(C(=O)NC(=O)NC1=O)[C@H]1[C@H](C)O[C@H](C)CN31` (relative stereo) [Example 126, (2R,4S,4aS)-rel-11-chloro-N-ethyl-2,4-dimethyl-2′,4′,6′-trioxo-2,2′,3′,4,4a,4′,6,6′-octahydro-1H,1′H-spiro[isoxazolo[4,5-g][1,4]oxazino[4,3-a][1,5]naphthyridine-5,5′-pyrimidine]-8-carboxamide] are within 1.5-fold of each other in IC50: 700 nM for the first, 500 nM for the second.

`C[C@@H]1CN2c3c(nc4c(C(=O)NC(C)(C)C)noc4c3Cl)CC3(C(=O)NC(=O)NC3=O)[C@H]2[C@H](C)O1` (relative stereo) [Example 128, (2R,4S,4aS)-rel-N-tert-butyl-11-chloro-2,4-dimethyl-2′,4′,6′-trioxo-2,2′,3′,4,4a,4′,6,6′-octahydro-1H,1′H-spiro[isoxazolo[4,5-g][1,4]oxazino[4,3-a][1,5]naphthyridine-5,5′-pyrimidine]-8-carboxamide] gave an IC50 of 19000 nM.
